Laboratory results reported in patent US20200368315A1, “ANTIMICROBIAL PEPTIDES AND ADMIXTURES THEREOF SHOWING ANTIMICROBIAL ACTIVITY AGAINST GRAM-NEGATIVE PATHOGENS” (priority 2017, published 2020).
Converted amounts (≈) assume the structure as drawn. “And” between values parts separate entries of the source, which are not always exact repeats. Equal values may be shown once. Read-outs that look alike come from different tables or passages of the source.

Columns and labels:
A. baumannii LMG01041 [1] = assay type: cell-based, Acinetobacter baumannii
Text: (§1) The test of synergistic effect was processed by conducting standard chequerboard broth microdilution assays. Nisin (Drug X) was loaded two fold serially diluted from row 1 to 10 in X-axis while GNPs (Drug Y) were loaded in eight two fold serially diluted concentrations from line A to H in Y-axis (FIG. 1). The original concentrations of peptides were MICs of each. Row 11 are used as growth control with no peptide was included, while row 12 with MHB medium-only wells was included as a sterility control as referred before. 50 uL fresh bacterial suspension was added to well 1-11 and final volume of each well on the plate is 100 uL.
(§2) To determine whether the combination therapy is additive, synergistic or antagonistic, fractional inhibitory concentration (FIC) indices were calculated. FICI=FICa+FICb=MICac/MICa+MICbc/MICb. The MICa/MICb is the MIC of compound A/B alone. MICac is the MIC of compound A in combination with compound B and MICbc is the MIC of compound B when it was combination with compound A. […]. FICa is FIC of compound A while FICb is FIC of compound B. The FICI is interpreted as follows: synergistic, FICI≤0.5; additive, 0.5<FICI<1; indifferent, 1<FICI<2; antagonistic, FICI>2.

A. baumannii LMG01041 [2] = experiment: microbe, parasite or virus in culture; assay type: cell-based, Acinetobacter baumannii; settings: LMG01041
Description: (§3) Escherichia coli, Klebsiella pneumoniae, Pseudomonas aeruginosa, Acinetobacter baumannii, Enterobacter aerogenes were grown in Luria-Bertani (LB) broth shaken (200 rpm) or on LB agar at 37° C. […] MICs tests were performed in duplicate by a liquid growth inhibition microdilution assays in sterilized polypropylene microtiter plates according to Wiegand and […] [27]. […] The suspension was diluted in a ratio of 1:100 using Mueller Hinton Broth (MHB) and the final inoculum is 5*10^5 CFU/mL. […] The antimicrobials were diluted serially by 1/2 one by one and 50 uL diluted bacterial suspension were added to each well to make the final volume to be 100 uL. Growth control was accomplished by remove 10 uL from well 11 and dilute 1000 times to plate 1/10 suspension on the solid medium. […] The number of colonies on the control agar plate should be around 50 to ensure the concentration of the inoculum and the effectiveness of the experiment. The lowest concentration of the antimicrobials that inhibits visible growth of the indicator is identified as MIC.

P. aeruginosa LMG 6395 [3] = experiment: microbe, parasite or virus in culture; assay type: cell-based, Pseudomonas aeruginosa; settings: LMG 6395
Description: as §3

P. aeruginosa LMG 6395 [4] = assay type: cell-based, Pseudomonas aeruginosa
Text: as §1, §2

L. lactis MG1363 = settings: MG1363
K. pneumoniae LMG20218 [5] = assay type: cell-based, Klebsiella pneumoniae
Text: as §1, §2

E. aerogenes LMG 02094 [6] = assay type: cell-based, Enterobacter aerogenes
Text: as §1, §2

P. aeruginosa LMG 6395 [7] = test system: P. aeruginosa LMG 6395
Description: (§4) The test of synergistic effect was processed by conducting standard chequerboard broth microdilution assays. […] Row 11 are used as growth control with no peptide was included, while row 12 with MHB medium-only wells was included as a sterility control as referred before. 50 uL fresh bacterial suspension was added to well 1-11 and final volume of each well on the plate is 100 uL.
(§5) The test of synergistic effect was processed as method 1.4.
as §2

E. aerogenes LMG 02094 [8] = test system: E. aerogenes LMG 02094
Description: as §4, §5, §2

E. coli LMG15862 [9] = test system: E. coli LMG15862
Description: as §4, §5, §2

K. pneumoniae LMG20218 [10] = test system: K. pneumoniae LMG20218
Description: as §4, §5, §2

A. baumannii LMG01041 [11] = settings: MIC of GNP alone
Description: as §4, §5, §2

E. coli LMG15862 [12] = experiment: microbe, parasite or virus in culture; assay type: cell-based, Escherichia coli
Description: as §3

K. pneumoniae LMG20218 [13] = experiment: microbe, parasite or virus in culture; assay type: cell-based, Klebsiella pneumoniae; settings: LMG20218
Description: as §3

E. coli LMG15862 [14] = assay type: cell-based, Escherichia coli
Text: as §1, §2

E. aerogenes LMG 02094 [15] = experiment: microbe, parasite or virus in culture; assay type: cell-based, Enterobacter aerogenes; settings: LMG 02094
Description: as §3

[16] = MIC of GNP when used with the MICac concentration of nisin
[17] = MIC of nisin in combination with the GNP at the MICbc concentration
[18] = MIC of GNP in combination with vancomycin at the MICac concentration
[19] = MIC of vancomycin in combination with the GNP at the MICbc concentration

Compound: CC[C@H](C)[C@H](NC(=O)[C@H](CCCNC(=N)N)NC(=O)[C@H](CCC(N)=O)NC(=O)[C@@H](NC(=O)[C@@H](NC(=O)[C@@H](N)CCCNC(=N)N)[C@@H](C)CC)C(C)C)C(=O)N[C@@H](CCCCN)C(=O)N[C@@H](CCCCN)C(=O)N[C@@H](Cc1c[nH]c2ccccc12)C(=O)N[C@@H](CC(C)C)C(=O)N[C@@H](CCCNC(=N)N)C(N)=O [GNP-8]
- MICb (A. baumannii LMG01041 [1]; MIC of GNP alone): >64 µM
- MICbc (A. baumannii LMG01041 [1]; [16]): 4 µM
- MICac (A. baumannii LMG01041 [1]; [17]): 0.19 µM
- MIC value (A. baumannii LMG01041 [2]): >64 µM
- MICb (MIC of GNP alone) (A. baumannii LMG01041 [2]): >64 µM
- MIC value (P. aeruginosa LMG 6395 [3]): 16 µM (≈ 23.9 µg/mL)
- MICb (MIC of GNP alone) (P. aeruginosa LMG 6395 [3]): 16 µM
- MICb (P. aeruginosa LMG 6395 [4]; MIC of GNP alone): 16 µM
- MICbc (P. aeruginosa LMG 6395 [4]; [16]): 0.5 µM
- MICac (P. aeruginosa LMG 6395 [4]; [17]): 4.5 µM
- MIC value of antimicrobial compounds alone (L. lactis MG1363): 24 µM
- MICb (K. pneumoniae LMG20218 [5]; MIC of GNP alone): 32 µM
- MICbc (K. pneumoniae LMG20218 [5]; [16]): 1 µM
- MICac (K. pneumoniae LMG20218 [5]; [17]): 0.75 µM
- MICb (E. aerogenes LMG 02094 [6]; MIC of GNP alone): 128 µM
- MICbc (E. aerogenes LMG 02094 [6]; [16]): 1 µM
- MICac (E. aerogenes LMG 02094 [6]; [17]): 4 µM
- MICb (P. aeruginosa LMG 6395 [7]; MIC of GNP alone): 16 µM
- MICbc (P. aeruginosa LMG 6395 [7]; [18]): 2 µM and 1 µM
- MICac (P. aeruginosa LMG 6395 [7]; [19]): 8 µM and 16 µM
- MICb (E. aerogenes LMG 02094 [8]; MIC of GNP alone): 128 µM
- MICbc (E. aerogenes LMG 02094 [8]; [18]): 8 µM and 16 µM
- MICac (E. aerogenes LMG 02094 [8]; [19]): 12 µM and 6 µM
- MICb (E. coli LMG15862 [9]; MIC of GNP alone): 12 µM
- MICbc (E. coli LMG15862 [9]; [18]): 1.5 µM and 0.75 µM
- MICac (E. coli LMG15862 [9]; [19]): 4 µM and 8 µM
- MICb (K. pneumoniae LMG20218 [10]; MIC of GNP alone): 32 µM
- MICbc (K. pneumoniae LMG20218 [10]; [18]): 2 µM and 1 µM
- MICac (K. pneumoniae LMG20218 [10]; [19]): 4 µM and 8 µM
- MICb (A. baumannii LMG01041 [11]): >64 µM
- MICb (GNP concentration when used alone) (E. coli LMG15862 [12]; L-form GNP, E. coli LMG15862, Table 6): 12 µM
- MIC value (E. coli LMG15862 [12]; LMG15862): 12 µM (≈ 17.9 µg/mL)
- MIC value (K. pneumoniae LMG20218 [13]): 32 µM (≈ 47.8 µg/mL)
- MICb (MIC of GNP alone) (K. pneumoniae LMG20218 [13]): 32 µM
- MICb (E. coli LMG15862 [14]; MIC of GNP alone): 12 µM
- MICbc (E. coli LMG15862 [14]; [16]): 1.5 µM
- MICac (E. coli LMG15862 [14]; [17]): 1.5 µM
- MIC value (E. aerogenes LMG 02094 [15]): 128 µM (≈ 191 µg/mL)
- MICb (MIC of GNP alone) (E. aerogenes LMG 02094 [15]): 128 µM
